Results on 15 compounds are retold here after US12600696B2 (XENIOPRO GMBH, priority 2017, dated 2026).

The assay deals with CAL-27 cells (human tongue squamous cell carcinoma cells). Description: alamarBlue proliferation assay with CAL-27 cells. It counts as cell-based. To be noted: for activity at 40 µM / activity at 20 µM: Homo sapiens, 120 h; for activity at 40 µM: relative to DMSO basis level 1.0, read-out: weighted arithmetic mean (AVEw) of normalized fluorescence intensity, activity range; for activity at 20 µM: relative to DMSO baseline level of 1.0, read-out: AVEw, weighted arithmetic mean of normalized fluorescence intensity values (Activity Range), CAL-27 proliferation. In a few lines:
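CAL-27 cells seeded at 2000 per well, exposed to compound in 0.1% DMSO for 5 days, then alamarBlue fluorescence (ex 560/em 590 nm). Values normalized to DMSO wells (1.0) as weighted means with combined standard deviation; growth inhibition judged at 20 μM reference concentration.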

Molecules are shown by their SMILES.

For the compound `NC(=O)c1ccc(Oc2ccc(C3CC4CCC3C4)cc2)cc1` (racemic) [Compound 159, (±)-4-(4-(Bicyclo[2.2.1]heptan-2-yl)phenoxy)benzamide], the activity at 40 µM is 60 to 70%.

As for `CCCc1ccc(Oc2ccc(C(=O)NO)cc2)cc1` [Compound 166, N-hydroxy-4-(4-propylphenoxy)benzamide], the activity at 40 µM was 0 to 20%. The activity at 20 µM (5 days) fell in the range of 20 to 40%.

With `CCC(C)(C)c1ccc(Oc2ccc(C(=O)NO)cc2)cc1` [Compound 171, N-hydroxy-4-(4-(tert-pentyl)phenoxy)benzamide], the activity at 20 µM (5 days) was 0 to 20%.

`O=C(NO)c1ccc(Oc2ccc(C3CCCCC3)cc2)cc1` [Compound 182, 4-(4-cyclohexylphenoxy)-N-hydroxybenzamide]: for the setting “5 days”, the activity at 20 µM lay within 20 to 40%.

For `O=C(NO)c1ccc(Oc2ccc(C34CC5CC(CC(C5)C3)C4)cc2)cc1` [Compound 186, 4-(4-(Adamantan-1-yl)phenoxy)-N-hydroxybenzamide], the activity at 20 µM (5 days) lay in the range of 0 to 20%.

Regarding `CC(C)c1ccc(Oc2ccc(C(=O)NO)cn2)cc1` [Compound 272, N-hydroxy-6-(4-isopropylphenoxy)nicotinamide], the activity at 40 µM lay in the range of 0 to 20%. Moreover, for the setting “5 days”, the activity at 20 µM is 0 to 20%.

In the case of `CCC(C)(C)c1ccc(Oc2ccc(C(=O)NO)cn2)cc1` [Compound 273, N-hydroxy-6-(4-(tert-pentyl)phenoxy)nicotinamide], the activity at 20 µM (5 days) was 0 to 20%.

On to `O=C(NO)c1ccc(Oc2ccc(C3CCCCC3)cc2)nc1` [Compound 284, 6-(4-Cyclohexylphenoxy)-N-hydroxynicotinamide], for which the activity at 20 µM (5 days) lay within 0 to 20%.

Regarding `O=C(NO)c1ccc(Oc2ccc(C3CC4CCC3CC4)cc2)nc1` (stereo not shown) [Compound 287, 6-(4-((1s,4s)-bicyclo[2.2.2]octan-2-yl)phenoxy)-N-hydroxynicotinamide], the activity at 40 µM was 0 to 20%. The activity at 20 µM (5 days) lay within 20 to 40%.

As for `O=C(NO)c1ccc(Oc2ccc(C34CC5CC(CC(C5)C3)C4)cc2)nc1` [Compound 288, 6-(4-((3r,5r,7r)-adamantan-1-yl)phenoxy)-N-hydroxynicotinamide], under “5 days”, the activity at 20 µM fell in the range of 20 to 40%.

Consider `CNC(=O)c1ccc(Oc2ccc(C(F)(F)F)cc2)nc1` [Compound 300, N-methyl-6-(4-(trifluoromethyl)phenoxy)nicotinamide], for which the activity at 40 µM fell in the range of 80 to 90%. For the same compound, where the note is “5 days”, the activity at 20 µM is 80 to 90%.

Take `CN(C)C(=O)c1ccc(Oc2ccc(C3CCCCC3)cc2)nc1` [Compound 334, 6-(4-cyclohexylphenoxy)-N,N-dimethylnicotinamide]: the activity at 40 µM lay in the range of 80 to 90%.

Consider `O=C(NO)c1ccc(Oc2ccc(C34CC5CC(CC(C5)C3)C4)cc2)c(F)c1` [Compound 544, 4-(4-(Adamantan-1-yl)phenoxy)-3-fluoro-N-hydroxybenzamide], for which, where the note is “5 days”, the activity at 20 µM lay in the range of 0 to 20%.

On to `O=C(NO)c1cnc(Oc2ccc(C3CCCCC3)cc2)c(F)c1` [Compound 644, 6-(4-Cyclohexylphenoxy)-5-fluoro-N-hydroxynicotinamide], for which the activity at 20 µM (5 days) lay in the range of 0 to 20%.

For the compound `Oc1ccc(C=Cc2cc(O)cc(O)c2)cc1` [RES, resveratrol, reference compound], the activity at 40 µM was 50%. Further, the “AVEw, weighted arithmetic mean of normalized fluorescence intensity values, CAL-27 proliferation” value (40 μM (control RES 40 μM), 5 days, relative to DMSO baseline level of 1.0) is reported as 0.4 ± 0.0. For the same compound, the activity at 20 µM (5 days) turned out to be 90%. Besides, the “weighted arithmetic mean (AVEw) of normalized fluorescence intensity” value (control RES at 20 μM, relative to DMSO basis level 1.0) was found to be 0.9 ± 0.0.
